Structures can show the parent of a compound that is named as a salt.
Legend:
[1] = molecular target: T1, human Adenosine A2a receptor (Homo sapiens, UniProt P29274); test: Adenosine receptor TR-FRET binding assay (CA200645 displacement), A2a; conditions: 100 nM CA200645, CHO cell membranes, 2 hours at room temperature
T1 construct: expressed in transfected cells; host or cells: CHO cell membranes

[2] = molecular target: T2, human Adenosine A3 receptor (Homo sapiens, UniProt P0DMS8); test: Adenosine receptor TR-FRET binding assay (CA200645 displacement), A3
T2 sequence (P0DMS8 1-318): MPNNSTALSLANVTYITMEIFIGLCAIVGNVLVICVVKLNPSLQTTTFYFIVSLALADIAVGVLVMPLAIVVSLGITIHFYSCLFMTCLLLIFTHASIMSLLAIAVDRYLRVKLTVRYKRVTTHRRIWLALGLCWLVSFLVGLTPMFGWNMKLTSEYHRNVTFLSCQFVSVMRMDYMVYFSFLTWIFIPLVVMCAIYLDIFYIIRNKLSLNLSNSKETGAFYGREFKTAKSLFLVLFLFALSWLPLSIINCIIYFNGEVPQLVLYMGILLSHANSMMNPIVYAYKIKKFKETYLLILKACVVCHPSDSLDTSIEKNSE

[3] = molecular target: T3, human Adenosine A2b receptor (Homo sapiens, UniProt P29275); test: Adenosine receptor TR-FRET binding assay (CA200645 displacement), A2b; conditions: 30 nM CA200645, CHO cell membranes, 2 hours at room temperature
T3 construct: expressed in transfected cells; host or cells: CHO cell membranes
T3 sequence (P29275 1-332): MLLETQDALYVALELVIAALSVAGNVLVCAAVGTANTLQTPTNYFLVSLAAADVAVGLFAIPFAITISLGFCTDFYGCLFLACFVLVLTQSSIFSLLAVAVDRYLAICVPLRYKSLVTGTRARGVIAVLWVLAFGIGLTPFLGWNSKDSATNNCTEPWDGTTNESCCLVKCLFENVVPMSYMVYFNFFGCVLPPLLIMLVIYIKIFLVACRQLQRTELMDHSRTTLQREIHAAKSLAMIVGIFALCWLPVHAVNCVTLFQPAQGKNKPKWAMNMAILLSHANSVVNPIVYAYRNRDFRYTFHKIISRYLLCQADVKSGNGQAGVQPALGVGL

[4] = molecular target: T4, human Adenosine A1 receptor (Homo sapiens, UniProt P30542); test: Adenosine receptor TR-FRET binding assay (CA200645 displacement), A1
T4 sequence (P30542 1-326): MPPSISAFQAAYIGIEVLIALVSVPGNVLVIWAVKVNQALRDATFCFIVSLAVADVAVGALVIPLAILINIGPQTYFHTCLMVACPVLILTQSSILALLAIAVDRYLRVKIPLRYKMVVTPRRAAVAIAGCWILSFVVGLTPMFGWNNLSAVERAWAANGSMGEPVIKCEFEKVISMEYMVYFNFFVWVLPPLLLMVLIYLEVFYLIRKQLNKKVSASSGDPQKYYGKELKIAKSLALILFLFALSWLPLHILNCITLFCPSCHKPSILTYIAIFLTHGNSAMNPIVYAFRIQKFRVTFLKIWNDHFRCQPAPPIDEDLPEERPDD

T1 sequence (P29274 whole entry): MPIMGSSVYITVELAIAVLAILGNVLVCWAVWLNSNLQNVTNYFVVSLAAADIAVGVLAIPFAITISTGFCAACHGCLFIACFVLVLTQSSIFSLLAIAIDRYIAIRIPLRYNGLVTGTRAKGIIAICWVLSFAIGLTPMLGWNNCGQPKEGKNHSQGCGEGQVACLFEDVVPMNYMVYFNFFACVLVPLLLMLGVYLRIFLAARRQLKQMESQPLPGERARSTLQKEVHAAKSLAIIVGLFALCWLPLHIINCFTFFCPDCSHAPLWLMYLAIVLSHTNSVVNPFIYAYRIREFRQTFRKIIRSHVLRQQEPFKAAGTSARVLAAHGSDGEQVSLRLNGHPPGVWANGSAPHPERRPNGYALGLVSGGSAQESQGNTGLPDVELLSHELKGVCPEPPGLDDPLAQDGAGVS

SMILES	Ki [1]	Ki [2]	Ki [3]	Ki [4]
Cc1cc(-c2c(-c3cccc(C#N)c3)nn3ccc(NCC4CNC(=O)C4)nc23)cc(Cl)n1 (stereo not drawn) [Example 2.14]	1.5 nM	> 1000 nM	8 nM	29 nM
Cc1cc(-c2c(-c3cccc(C#N)c3)nn3ccc(CN)nc23)cc(Cl)n1 [Example 21, 3-[5-(Aminomethyl)-3-(2-chloro-6-methyl-4-pyridyl)pyrazolo[1,5-a]pyrimidin-2-yl]benzonitrile]	81.5 nM	> 1000 nM	102 nM	2440 nM
Nc1ccn2nc(-c3ccco3)c(-c3ccncc3)c2n1 [Example 79, 2-(2-Furyl)-3-(4-pyridyl)pyrazolo[1,5-a]pyrimidin-5-amine]	146 nM	2080 nM	34 nM	14 nM
Cc1cc(-c2c(-c3cccc(C#N)c3)nn3ccc(N4CCC4C(=O)O)nc23)cc(Cl)n1 (stereo not drawn) [Example 2.34]	22.5 nM	> 1000 nM	163 nM	234 nM
Cc1cccnc1CNc1ccn2nc(-c3ccco3)c(C(N)=O)c2n1 [Example 38, 2-(2-Furyl)-5-[(3-methyl-2-pyridyl)methylamino]pyrazolo[1,5-a]pyrimidine-3-carboxamide]	10.5 nM	1010 nM	971 nM	158 nM
Cc1cc(-c2c(-c3cccc(C#N)c3)nn3ccc(C(=O)NCC4CNCCO4)nc23)cc(Cl)n1 (stereo not drawn) [Example 7.11, 3-(2-Chloro-6-methyl-4-pyridyl)-2-(3-cyanophenyl)-N-(morpholin-2-ylmethyl)pyrazolo[1,5-a]pyrimidine-5-carboxamide]	4.9 nM	> 1000 nM	3 nM	137 nM
Cc1cc(-c2c(-c3cccc(C#N)c3)nn3ccc(N4CCN[C@H](C(C)(C)O)C4)nc23)cc(Cl)n1 [Example 2.41]	1.7 nM	> 1000 nM	2 nM	82 nM
Cc1cc(-c2c(-c3cccc(C#N)c3)nn3ccc(N)nc23)cc(C(N)=O)n1 [Example 27.2, 4-[5-Amino-2-(3-cyanophenyl)pyrazolo[1,5-a]pyrimidin-3-yl]-6-methyl-pyridine-2-carboxamide]	13.3 nM	> 1000 nM	39 nM	17 nM
Cc1cc(-c2c(-c3cccc(C#N)c3)nn3ccc(N/C(N)=N\C#N)nc23)cc(Cl)n1 [Example 32, 1-[3-(2-Chloro-6-methyl-4-pyridyl)-2-(3-cyanophenyl)pyrazolo[1,5-a]pyrimidin-5-yl]-2-cyano-guanidine]	17.4 nM	> 1000 nM	53 nM	800 nM
Cc1cc(-c2c(-c3cccc(C#N)c3)nn3ccc(NC[C@@H]4COCCN4)nc23)cc(Cl)n1 [Example 4.1]	38.5 nM	> 1000 nM	163 nM	522 nM
Cc1cc(-c2c(-c3cccc(C#N)c3)nn3ccc(O[C@@H]4CCNC4)nc23)cc(Cl)n1 [Example 18, 3-[3-(2-Chloro-6-methyl-4-pyridyl)-5-[(3R)-pyrrolidin-3-yl]oxy-pyrazolo[1,5-a]pyrimidin-2-yl]benzonitrile formate]	9.7 nM	> 1000 nM	16 nM	54 nM
N#Cc1c(-c2ccco2)nn2ccc(N)nc12 [Example 49, 5-Amino-2-(2-furyl)pyrazolo[1,5-a]pyrimidine-3-carbonitrile]	147 nM	3960 nM	2220 nM	172 nM
Cc1cc(-c2c(-c3cccc(C#N)c3)nn3ccc(N4CC5CCC(C4)N5C)nc23)cc(Cl)n1 [Example 2.2]	0.5 nM	> 1000 nM	45 nM	5 nM
CCn1nccc1-c1c(-c2cccc(C#N)c2)nn2ccc(N3CC4CCC(C3)O4)nc12 [Example 33.2]	15.2 nM	> 1000 nM	159 nM	126 nM
Cc1cc(-c2c(-c3cccc(C#N)c3)nn3ccc(N4CCNCC4)nc23)cc(Cl)n1 [Example 2.29]	11.8 nM	> 1000 nM	21 nM	124 nM
Cc1cc(-c2c(-c3cccc(C#N)c3)nn3ccc(N)nc23)cc(N(C)C)n1 [Example 29, 3-[5-Amino-3-[2-(dimethylamino)-6-methyl-4-pyridyl]pyrazolo[1,5-a]pyrimidin-2-yl]benzonitrile]	15.2 nM	> 1000 nM	56 nM	144 nM
Cc1cc(-c2c(-c3cccc(C#N)c3)nn3ccc(C(=O)N4CCOCC4)nc23)cc(Cl)n1 [Example 5.7]	14.8 nM	> 1000 nM	10 nM	135 nM
Cc1cc(-c2c(-c3cccc(C#N)c3)nn3ccc(NC(=O)NCC(C)(C)N)nc23)cc(Cl)n1 [Example 31.4, 1-(2-Amino-2-methyl-propyl)-3-[3-(2-chloro-6-methyl-4-pyridyl)-2-(3-cyanophenyl)pyrazolo[1,5-a]pyrimidin-5-yl]urea trifluoroacetate]	9.8 nM	> 1000 nM	13 nM	112 nM
Cc1cc(-c2c(-c3cccc(C#N)c3)nn3ccc(CN4CCNCC4)nc23)cc(C)n1 [Example 20.1, 3-[3-(2,6-Dimethyl-4-pyridyl)-5-(piperazin-1-ylmethyl)pyrazolo[1,5-a]pyrimidin-2-yl]benzonitrile trifluoroacetate]	116 nM	> 1000 nM	626 nM	2530 nM
CCn1nccc1-c1c(-c2cccc(C#N)c2)nn2ccc(N3CCN(C)C(CO)C3)nc12 (stereo not drawn) [Example 33.1]	14.9 nM	> 1000 nM	62 nM	184 nM
N#Cc1c(-c2ccco2)nn2ccc(N3CCN(Cc4ccccc4)CC3)nc12 [Example 43, 5-(4-Benzylpiperazin-1-yl)-2-(2-furyl)pyrazolo[1,5-a]pyrimidine-3-carbonitrile]	16.4 nM	> 1000 nM	1860 nM	278 nM
Cc1cc(-c2c(-c3cccc(C#N)c3)nn3ccc(C(=O)NS(C)(=O)=O)nc23)cc(Cl)n1 [Example 6.8, 3-(2-Chloro-6-methyl-4-pyridyl)-2-(3-cyanophenyl)-N-methylsulfonyl-pyrazolo[1,5-a]pyrimidine-5-carboxamide]	8.3 nM	2550 nM	39 nM	522 nM

The remaining lines, values ahead:

Ki [1]	Ki [2]	Ki [3]	Ki [4]	SMILES
244 nM	4180 nM	1700 nM	284 nM	N#Cc1c(-c2ccco2)nn2ccc(NCCO)nc12 [Example 55.2, 2-(2-furyl)-5-(2-hydroxyethylamino)pyrazolo[1,5-a]pyrimidine-3-carbonitrile]
2.9 nM	> 1000 nM	24 nM	459 nM	Cc1cc(-c2c(-c3cccc(C#N)c3)nn3ccc(C(=O)N[C@@H]4CN(C)C[C@H]4O)nc23)cc(C)n1 [Example 92.32]
410 nM	> 1000 nM	4450 nM	680 nM	N#Cc1c(-c2ccco2)nn2ccc(NC[C@H]3CNCCO3)nc12 [Example 42.1, 2-(2-Furyl)-5-[[(2R)-morpholin-2-yl]methylamino]pyrazolo[1,5-a]pyrimidine-3-carbonitrile hydrochloride]
0.8 nM	> 1000 nM	36 nM	361 nM	Cc1cc(-c2c(-c3cccc(C#N)c3)nn3ccc(C(=O)N[C@@H]4COC[C@@H]4O)nc23)cc(C)n1 [Example 92.30]
3.2 nM	> 1000 nM	64 nM	345 nM	Cc1cc(-c2c(-c3cccc(C#N)c3)nn3ccc(C(=O)NC[C@@H]4CNC(=O)C4)nc23)cc(C)n1 [Example 92.28]
3.4 nM	> 1000 nM	35 nM	1120 nM	Cc1cc(-c2c(-c3cccc(C#N)c3)nn3ccc(C(=O)N[C@H]4CC[C@@](C)(O)CC4)nc23)cc(C)n1 [Example 92.23]
33.2 nM	1740 nM	1100 nM	133 nM	CC(C)(C)OC(=O)N1CCO[C@H](CNc2ccn3nc(-c4ccco4)c(C#N)c3n2)C1 [Example 37.5]
0.7 nM	> 1000 nM	22 nM	167 nM	Cc1cc(-c2c(-c3cccc(C#N)c3)nn3ccc(C(=O)NC(C)C4(O)COC4)nc23)cc(C)n1 (stereo not drawn) [Example 92.6]
